# Experimental data reported in ChEMBL document CHEMBL5506003, “Design and biological evaluation of dual tubulin/HDAC inhibitors based on millepachine for treatment of prostate cancer” (Eur J Med Chem, 2024).
# How the values were obtained:
# MDA-MB-231 = assay: Cytotoxicity against human MDA-MB-231 cells incubated for 72 hrs by MTT assay; type: functional, cell-based; details: MDA-MB-231, 72 h
# A549 = assay: Cytotoxicity against human A549 cells incubated for 72 hrs by MTT assay; details: A549, 72 h
# PC-3 [1] = assay: Cytotoxicity against human PC-3 cells incubated for 72 hrs by MTT assay; details: PC-3, 72 h
# U-251 = assay: Cytotoxicity against human U-251 cells incubated for 72 hrs by MTT assay; details: U-251, 72 h
# MCF7 = assay: Cytotoxicity against human MCF7 cells incubated for 72 hrs by MTT assay; details: MCF7, 72 h
# Histone deacetylase 1 = Histone deacetylase 1 (Homo sapiens, UniProt Q13547); assay: Inhibition of HDAC1 in human HeLa nuclear extracts incubated for 30 mins by fluorescence based assay; type: cell-free
# Histone deacetylase 2 = Histone deacetylase 2 (Homo sapiens, UniProt Q92769); assay: Inhibition of HDAC2 in human HeLa nuclear extracts incubated for 30 mins by fluorescence based assay; type: cell-based
# [2] = target: T1, Protein deacetylase HDAC6 (Homo sapiens, UniProt Q9UBN7); assay: Inhibition of HDAC6 in human HeLa nuclear extracts incubated for 30 mins by fluorescence based assay; type: cell-free
# T1 sequence (Q9UBN7 whole entry): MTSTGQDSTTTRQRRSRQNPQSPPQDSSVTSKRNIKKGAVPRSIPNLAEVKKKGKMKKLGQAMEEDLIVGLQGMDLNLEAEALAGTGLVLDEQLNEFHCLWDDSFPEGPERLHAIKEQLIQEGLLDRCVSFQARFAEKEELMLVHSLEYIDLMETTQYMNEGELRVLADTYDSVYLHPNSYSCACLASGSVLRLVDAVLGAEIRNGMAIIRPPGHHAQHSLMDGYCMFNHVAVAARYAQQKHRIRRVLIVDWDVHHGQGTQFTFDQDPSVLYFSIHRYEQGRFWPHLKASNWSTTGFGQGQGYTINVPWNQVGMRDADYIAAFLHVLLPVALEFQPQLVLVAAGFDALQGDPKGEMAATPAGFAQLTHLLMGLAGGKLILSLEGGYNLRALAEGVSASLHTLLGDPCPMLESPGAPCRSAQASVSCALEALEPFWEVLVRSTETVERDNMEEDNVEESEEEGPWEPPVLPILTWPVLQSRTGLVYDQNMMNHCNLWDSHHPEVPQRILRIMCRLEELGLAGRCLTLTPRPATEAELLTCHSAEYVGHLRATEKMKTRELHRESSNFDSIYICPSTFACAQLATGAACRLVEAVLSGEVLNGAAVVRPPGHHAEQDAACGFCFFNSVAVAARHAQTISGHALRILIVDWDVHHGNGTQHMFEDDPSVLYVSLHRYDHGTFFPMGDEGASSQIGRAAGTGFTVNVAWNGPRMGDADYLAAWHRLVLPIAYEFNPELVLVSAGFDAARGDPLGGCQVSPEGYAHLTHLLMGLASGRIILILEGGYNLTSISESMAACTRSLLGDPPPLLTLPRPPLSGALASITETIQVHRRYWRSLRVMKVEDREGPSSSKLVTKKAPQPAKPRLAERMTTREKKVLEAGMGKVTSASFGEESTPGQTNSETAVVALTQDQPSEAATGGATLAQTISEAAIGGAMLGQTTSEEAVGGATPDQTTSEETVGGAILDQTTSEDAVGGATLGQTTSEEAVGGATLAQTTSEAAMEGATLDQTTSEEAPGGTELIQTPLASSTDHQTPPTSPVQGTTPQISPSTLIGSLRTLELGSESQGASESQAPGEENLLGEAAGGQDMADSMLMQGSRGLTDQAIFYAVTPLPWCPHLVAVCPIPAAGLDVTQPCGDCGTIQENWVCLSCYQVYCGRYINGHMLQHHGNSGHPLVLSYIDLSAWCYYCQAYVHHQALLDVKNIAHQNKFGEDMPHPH
# Histone deacetylase 7 = target: T2, Histone deacetylase 7 (Homo sapiens, UniProt Q8WUI4); assay: Inhibition of HDAC7 in human HeLa nuclear extracts incubated for 30 mins by fluorescence based assay; type: cell-free
# T2 sequence (Q8WUI4 whole entry): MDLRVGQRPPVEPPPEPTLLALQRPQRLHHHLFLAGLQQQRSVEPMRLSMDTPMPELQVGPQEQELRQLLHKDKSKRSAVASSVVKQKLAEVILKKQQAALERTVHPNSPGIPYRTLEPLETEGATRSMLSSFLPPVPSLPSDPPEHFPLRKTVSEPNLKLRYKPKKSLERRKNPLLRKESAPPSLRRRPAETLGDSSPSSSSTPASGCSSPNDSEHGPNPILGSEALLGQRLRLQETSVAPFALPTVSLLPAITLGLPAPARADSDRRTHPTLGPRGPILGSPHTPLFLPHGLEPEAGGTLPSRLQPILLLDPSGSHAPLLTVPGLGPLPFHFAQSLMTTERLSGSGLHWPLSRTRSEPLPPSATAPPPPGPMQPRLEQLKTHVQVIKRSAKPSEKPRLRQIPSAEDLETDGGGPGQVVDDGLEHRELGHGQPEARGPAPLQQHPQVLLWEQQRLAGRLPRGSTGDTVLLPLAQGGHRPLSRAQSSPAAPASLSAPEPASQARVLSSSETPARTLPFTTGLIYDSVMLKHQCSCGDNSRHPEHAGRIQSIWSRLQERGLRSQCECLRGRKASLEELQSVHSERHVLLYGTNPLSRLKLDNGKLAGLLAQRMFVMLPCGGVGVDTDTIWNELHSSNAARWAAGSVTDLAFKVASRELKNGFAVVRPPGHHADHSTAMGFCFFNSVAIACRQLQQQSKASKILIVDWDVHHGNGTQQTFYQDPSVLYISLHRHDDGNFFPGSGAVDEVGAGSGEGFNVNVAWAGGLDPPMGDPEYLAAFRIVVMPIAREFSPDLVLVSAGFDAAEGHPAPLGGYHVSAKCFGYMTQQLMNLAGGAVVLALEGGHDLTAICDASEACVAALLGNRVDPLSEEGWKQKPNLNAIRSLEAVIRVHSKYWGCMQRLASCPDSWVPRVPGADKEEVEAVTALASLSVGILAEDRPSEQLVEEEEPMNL
# PC-3 [3] = assay: Antitumor activity against human PC-3 cells xenografted in BALB/c nude mouse assessed as tumor growth inhibition at 5 mg/kg, iv administered every 2 days and measured after 3 weeks; type: functional; details: PC-3, 504 h, read-out: TGI
# [4] = Toxicity in BALB/c nude mouse xenografted with human PC-3 cells assessed as body weight loss at 5 mg/kg, iv administered every 2 days and measured after 3 weeks; type: organism-based; details: in vivo, 504 h
# [5] = Toxicity in BALB/c nude mouse xenografted with human PC-3 cells assessed as mortality at 5 mg/kg, iv administered every 2 days and measured after 3 weeks; type: organism-based; details: in vivo, 504 h
# Sequence of Histone deacetylase 1 (Q13547 whole entry): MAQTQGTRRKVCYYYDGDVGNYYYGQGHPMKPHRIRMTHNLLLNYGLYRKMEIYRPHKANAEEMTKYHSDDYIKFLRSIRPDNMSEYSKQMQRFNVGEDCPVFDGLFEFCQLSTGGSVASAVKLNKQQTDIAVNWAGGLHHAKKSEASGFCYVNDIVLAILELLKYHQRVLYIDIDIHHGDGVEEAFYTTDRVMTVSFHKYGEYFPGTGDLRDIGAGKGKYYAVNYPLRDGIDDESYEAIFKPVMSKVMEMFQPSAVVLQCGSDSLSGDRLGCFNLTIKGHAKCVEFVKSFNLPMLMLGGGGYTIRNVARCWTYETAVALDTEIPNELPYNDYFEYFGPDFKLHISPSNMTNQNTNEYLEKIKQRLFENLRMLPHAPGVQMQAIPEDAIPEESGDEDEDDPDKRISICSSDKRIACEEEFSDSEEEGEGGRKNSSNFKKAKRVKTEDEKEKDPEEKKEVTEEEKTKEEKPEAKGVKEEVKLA
# Sequence of Histone deacetylase 2 (Q92769 whole entry): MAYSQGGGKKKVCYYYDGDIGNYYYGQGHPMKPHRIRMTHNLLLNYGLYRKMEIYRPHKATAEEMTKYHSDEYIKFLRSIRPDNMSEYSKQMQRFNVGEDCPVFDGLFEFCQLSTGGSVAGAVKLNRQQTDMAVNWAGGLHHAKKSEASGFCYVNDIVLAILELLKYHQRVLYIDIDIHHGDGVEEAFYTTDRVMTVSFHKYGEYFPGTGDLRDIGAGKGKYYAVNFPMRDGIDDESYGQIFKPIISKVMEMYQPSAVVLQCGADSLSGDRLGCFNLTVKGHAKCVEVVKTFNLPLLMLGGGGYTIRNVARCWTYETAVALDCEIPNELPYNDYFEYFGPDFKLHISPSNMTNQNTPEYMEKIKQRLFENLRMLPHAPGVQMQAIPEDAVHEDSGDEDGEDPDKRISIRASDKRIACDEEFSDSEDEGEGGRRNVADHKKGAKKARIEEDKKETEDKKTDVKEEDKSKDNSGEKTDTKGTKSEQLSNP
Structure (SMILES),IC50 (MDA-MB-231),IC50 (A549),IC50 (PC-3 [1]),IC50 (U-251),IC50 (MCF7),IC50 (Histone deacetylase 1),IC50 (Histone deacetylase 2),IC50 [2],IC50 (Histone deacetylase 7),inhibition in vivo at 5 mg/kg (PC-3 [3]),Activity [4],Activity [5]
COc1ccc(/C=C/C(=O)c2ccc(Br)c3c2OC(C)(C)C=C3)cc1NCC(=O)NO,0.16 µM,0.8 µM,0.032 µM,0.14 µM,0.19 µM,0.87 µM,1.43 µM,3.35 µM,8.3 µM,–,–,–
COc1ccc(/C=C/C(=O)c2ccc(OC)c3c2OC(C)(C)C=C3)cc1OCCCCCCC(=O)NO,> 10 µM,> 10 µM,> 10 µM,> 10 µM,10 µM,–,–,–,–,–,–,–
COc1ccc(/C=C/C(=O)c2ccc(OC)c3c2OC(C)(C)C=C3)cc1OCCCCC(=O)NO,4.69 µM,7.13 µM,4.84 µM,> 10 µM,> 10 µM,–,–,–,–,–,–,–
COc1ccc(/C=C/C(=O)c2ccc(Cl)c3c2OC(C)(C)C=C3)cc1NCC(=O)Nc1ccccc1N,3 µM,> 10 µM,2.65 µM,4.72 µM,4.77 µM,–,–,–,–,–,–,–
COc1ccc(/C=C/C(=O)c2ccc(Br)c3c2OC(C)(C)C=C3)cc1OCC(=O)NO,0.47 µM,1.31 µM,0.72 µM,0.49 µM,1.82 µM,0.58 µM,0.83 µM,1.21 µM,5.42 µM,–,–,–
COc1ccc(/C=C/C(=O)c2ccc(OC)c3c2OC(C)(C)C=C3)cc1OCCCCC(=O)Nc1ccccc1N,> 10 µM,> 10 µM,6.44 µM,> 10 µM,8.49 µM,–,–,–,–,–,–,–
COc1ccc(/C=C/C(=O)c2ccc(Cl)c3c2OC(C)(C)C=C3)cc1OCC(=O)NO,0.5 µM,2.56 µM,0.22 µM,1.76 µM,1.45 µM,–,–,–,–,–,–,–
COc1ccc(/C=C/C(=O)c2ccc(OC)c3c2OC(C)(C)C=C3)cc1OCCCC(=O)NO,8.71 µM,5.53 µM,6.15 µM,3.68 µM,5.68 µM,–,–,–,–,–,–,–
COc1ccc(/C=C/C(=O)c2ccc(OC)c3c2OC(C)(C)C=C3)cc1 [MILLEPACHINE],2.47 µM,> 10 µM,1.13 µM,3.72 µM,4.37 µM,–,–,–,–,–,–,–
COc1ccc(/C=C/C(=O)c2ccc(Br)c3c2OC(C)(C)C=C3)cc1OCC(=O)Nc1ccccc1N,4.75 µM,8.2 µM,3.75 µM,6.68 µM,6.11 µM,–,–,–,–,–,–,–
COc1ccc(/C=C/C(=O)c2ccc(OC)c3c2OC(C)(C)C=C3)cc1OCC(=O)NO,1.71 µM,2.93 µM,0.23 µM,0.48 µM,0.59 µM,–,–,–,–,–,–,–
COc1ccc(/C=C/C(=O)c2ccc(OC)c3c2OC(C)(C)C=C3)cc1OCCCCCC(=O)Nc1ccccc1N,> 10 µM,> 10 µM,5.86 µM,> 10 µM,> 10 µM,–,–,–,–,–,–,–
CC(=O)O[C@H]1C(=O)[C@@]2(C)[C@H]([C@H](OC(=O)c3ccccc3)[C@]3(O)C[C@H](OC(=O)[C@H](O)[C@@H](NC(=O)c4ccccc4)c4ccccc4)C(C)=C1C3(C)C)[C@]1(OC(C)=O)CO[C@@H]1C[C@@H]2O [PACLITAXEL],–,–,–,–,–,–,–,–,–,91.3%,Toxic,Toxic
COc1ccc(/C=C/C(=O)c2ccc(OC)c3c2OC(C)(C)C=C3)cc1OCCCC(=O)Nc1ccccc1N,> 10 µM,> 10 µM,> 10 µM,7.52 µM,9.47 µM,–,–,–,–,–,–,–
COc1ccc(/C=C/C(=O)c2ccc(Cl)c3c2OC(C)(C)C=C3)cc1NCC(=O)NO,0.5 µM,1.67 µM,0.052 µM,0.25 µM,0.48 µM,–,–,–,–,–,–,–
COc1ccc(/C=C/C(=O)c2ccc(OC)c3c2OC(C)(C)C=C3)cc1OCCCCCC(=O)NO,> 10 µM,6.08 µM,5.74 µM,> 10 µM,6.53 µM,–,–,–,–,–,–,–
COc1ccc(/C=C/C(=O)c2ccc(Br)c3c2OC(C)(C)C=C3)cc1NCC(=O)Nc1ccccc1N,4.05 µM,> 10 µM,1.23 µM,3.66 µM,4.06 µM,–,–,–,–,–,–,–
COc1ccc(/C=C/C(=O)c2ccc(OC)c3c2OC(C)(C)C=C3)cc1NCCCCCC(=O)Nc1ccccc1N,> 10 µM,> 10 µM,5.16 µM,> 10 µM,> 10 µM,–,–,–,–,–,–,–
COc1ccc(/C=C/C(=O)c2ccc(OC)c3c2OC(C)(C)C=C3)cc1OCC(=O)Nc1ccccc1N,> 10 µM,> 10 µM,> 10 µM,7.6 µM,8.72 µM,–,–,–,–,–,–,–
COc1ccc(/C=C/C(=O)c2ccc(OC)c3c2OC(C)(C)C=C3)cc1NCCCCCCC(=O)NO,> 10 µM,> 10 µM,7.23 µM,> 10 µM,> 10 µM,–,–,–,–,–,–,–
COc1ccc(/C=C/C(=O)c2ccc(OC)c3c2OC(C)(C)C=C3)cc1NCCCCCCC(=O)Nc1ccccc1N,> 10 µM,> 10 µM,6.61 µM,> 10 µM,> 10 µM,–,–,–,–,–,–,–
COc1ccc(/C=C/C(=O)c2ccc(Cl)c3c2OC(C)(C)C=C3)cc1OCC(=O)Nc1ccccc1N,3.45 µM,7.72 µM,4.69 µM,9.23 µM,9.14 µM,–,–,–,–,–,–,–
COc1ccc(/C=C/C(=O)c2ccc(OC)c3c2OC(C)(C)C=C3)cc1NCC(=O)Nc1ccccc1N,4.97 µM,9.78 µM,3.1 µM,4.19 µM,4.33 µM,–,–,–,–,–,–,–
COc1ccc(/C=C/C(=O)c2ccc(OC)c3c2OC(C)(C)C=C3)cc1OCCCCCCC(=O)Nc1ccccc1N,3.89 µM,> 10 µM,> 10 µM,> 10 µM,> 10 µM,–,–,–,–,–,–,–
COc1ccc(/C=C/C(=O)c2ccc(OC)c3c2OC(C)(C)C=C3)cc1NCCCCCC(=O)NO,> 10 µM,> 10 µM,> 10 µM,> 10 µM,> 10 µM,–,–,–,–,–,–,–
